Reference: ChEMBL document CHEMBL1152673, “Crystal structure of 3-isopropylmalate dehydrogenase in complex with NAD(+) and a designed inhibitor” (Bioorg Med Chem, 2009)

Target: 3-isopropylmalate dehydrogenase (Thermus thermophilus, UniProt Q5SIY4)
Assay: Inhibition of Thermus thermophilus HB8 IPMDH assessed as formation of NADH by Lineweaver-Burke plot analysis

Sequence of 3-isopropylmalate dehydrogenase (Q5SIY4 whole entry): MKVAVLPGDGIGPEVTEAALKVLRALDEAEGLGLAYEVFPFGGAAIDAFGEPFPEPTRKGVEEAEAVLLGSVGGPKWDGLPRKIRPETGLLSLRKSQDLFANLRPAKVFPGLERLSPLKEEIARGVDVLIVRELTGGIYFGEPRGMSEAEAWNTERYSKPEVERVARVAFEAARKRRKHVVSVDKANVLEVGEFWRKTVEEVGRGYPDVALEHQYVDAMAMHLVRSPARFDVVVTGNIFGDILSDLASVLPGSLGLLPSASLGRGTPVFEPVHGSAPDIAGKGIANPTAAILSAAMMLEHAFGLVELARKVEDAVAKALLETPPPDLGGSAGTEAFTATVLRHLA

- Ki: 0.062 µM
SMILES: CS[C@H](C(=O)O)[C@@H](O)C(=O)O
